# Key:
# [1] = system: APAP-induced acute liver failure (ALF) model; assay: APAP-induced acute liver failure (ALF) model, sublethal (300 mg/kg APAP i.p.); type: in vivo, C57Bl/6 male mice; details: for ALT levels reduced relative to untreated control animals: +5 h after APAP (300 mg/kg), ALT at 22 hours
# Protocol: Compound 3b was studied in a sublethal model for acetaminophen (APAP)-induced Liver Injury.
# ALF was induced in C57Bl/6 male mice with a single dose of acetaminophen (300 mg/kg) by i.p. injection. […] Serum alanine aminotransferase (ALT) was measured 22 h after APAP injection (n=5 mice for each group). […] ALF was induced in C57Bl/6 male mice with a single dose of acetaminophen (300 mg/kg) by i.p. injection. […] Twenty-two hours after APAP injection serum ALT was measured (indicated in FIG. 11A), centrilobular sections of mouse livers were cut and stained with hematoxylin and eosin, and the percentage of liver necrosis was determined. The data indicates a dose-dependent reduction of ALT levels of 9% to 83% relative to APAP control, and a dose-dependent reduction of necrosis of 0% to 56% relative to APAP control.
# ALF was induced in C57Bl/6 male mice with a single dose of acetaminophen (300 mg/kg) by i.p. injection. […] Alanine aminotransferase (ALT) was measured 22 h after APAP injection (n=4 or n=5 mice for each group).
# ALF was induced in C57Bl/6 male mice with a single dose of acetaminophen (300 mg/kg) by i.p. injection. […] Twenty-two hours after APAP injection, serum ALT was measured (indicated in FIGS. 12A-12B), centrilobular sections of mouse livers were cut and stained with hematoxylin and eosin, and the percentage of liver necrosis was determined.
# ALF was induced in C57Bl/6 male mice with a single dose of acetaminophen (300 mg/kg) by i.p. injection.
# FIG. 14 depicts the effect of late treatment with Compound 3b on serum ALT in ALF model. ALF was induced in C57Bl/6 male mice with a single dose of acetaminophen (300 mg/kg) by i.p. injection. At sixteen hours after APAP injection, the animals were treated with different doses of Compound 3b (0.3, 3, 30 or 60 mg/kg). Alanine aminotransferase (ALT) was measured 22 h after APAP injection (n=4 or n=5 mice for each group).
# ALF was induced in C57Bl/6 male mice with a single dose of acetaminophen (300 mg/kg) by i.p. injection. […] Experiments 1 and 2 represent two independent experiments. Alanine aminotransferase (ALT) was measured 22 h after APAP injection (n=4 or n=5 mice for each group). The ALT levels and the respective percentage of ALT increase, relative to the increase observed in mice injected with APAP alone, are presented in Table 7.
# ALF was induced in C57Bl/6 male mice with a single dose of acetaminophen (300 mg/kg) by i.p. injection. […] Twenty-two hours after APAP injection, serum ALT was measured and centrilobular sections of mouse livers were cut and stained with hematoxylin and eosin.
# [2] = half-life for CO release in sheep blood using an oximeter; type: in vitro ADME; details: 632.1 μg/mL
# Protocol: The stability of compound 4b was determined by measuring the release of CO in vitro in 50 mM Hepes buffer (pH 7.4) using a RCP-equipped GC. Compound 4b concentration was 50 μM. […] The half-life for CO release was also measured in sheep blood using an oximeter. A concentration of 632.1 μg/mL of compound 4b was used.
# The half-life for CO release was also measured in sheep blood using an oximeter. […] Compound 5b released 0.12 molar equivalents of CO in 3 hours.
# [3] = system: lethal APAP liver failure model; assay: lethal APAP liver failure model (500 mg/kg APAP i.p.), survival; details: 2×300 mg/kg, same schedules; data not shown
# [4] = system: murine partial hepatectomy model; details: from Yang et al., Crit. Care (2009); cited from earlier work
# [5] = NAC 2 × 300 mg/kg at 1 h and 3 h post APAP, serum 22 h
smiles,measurement,setting,value
"O=C([O-])CC([N+]#[C][Mo-6]([C]#[O+])([C]#[O+])([C]#[O+])([C]#[N+]C(CC(=O)[O-])C(=O)[O-])[C]#[N+]C(CC(=O)[O-])C(=O)[O-])C(=O)[O-].[Li+].[Li+].[Li+].[Li+].[Li+].[Li+] (centres unmarked) [Compound 4b, tricarbonyl[tris(lithium 2-isocyanosuccinate)]Mo(0)]",ALT levels reduced relative to untreated control animals,[1]; 30 mg/kg i.p. at +3 h,75%
"O=C(O)C1([N+]#[C][Mo-6]([C]#[O+])([C]#[O+])([C]#[O+])([C]#[N+]C2(C(=O)O)CC2)[C]#[N+]C2(C(=O)O)CC2)CC1 [Compound 5b, tricarbonyl[tris(isocyanocyclopropylcarboxylic acid)]Mo(0)]",CO released in sheep blood in 3 hours,[2],0.12 molar equivalents of CO
same,ALT levels reduced relative to untreated control animals,[1]; 120 mg/kg i.p. at +3 h,70%
"CC(=O)N[C@@H](CS)C(=O)O [NAC, N-acetylcysteine, reference compound]",Measured ALT values (mean ± S.D.) Experiment 1,[1]; [5],1745 ± 738 U/L
same,Measured ALT values (mean ± S.D.) Experiment 2,[1]; [5],6620 ± 2142 U/L
same,effect on serum ALT when given late after APAP injury (in words),"[1]; five hours and seven hours after APAP, NAC 150 mg/kg, Compound 3b 120 mg/kg",no longer effective and increases serum ALT levels (is toxic)
same,survival,[3],100%
same,effect on liver regeneration (in words),[4],no effect and may be detrimental

# Reference: patent US9163044B2, “Carbon monoxide releasing molecules and uses thereof” (Alfama, Inc., priority 2011, dated 2015)
